Source: patent US20250090603A1, “COMPOSITIONS CONTAINING BACILLAENE PRODUCING BACTERIA OR PREPARATIONS THEREOF” (Evonik Operations GmbH, priority 2019, published 2025)

What was measured:
[1] = tested on: S. enterica subsp. enterica enteritidis DSM 14221; format: cell-based, Salmonella enterica
[2] = tested on: Vibrio parahaemolyticus DSM 10027; format: cell-based; settings: concluded from experiments with knock-out mutants

Compound: C/C(=C/C=C/C=C/C(C)C(=O)O)NC(=O)CC(O)\C(C)=C/C=C\C=C(C)\C=C\C=C/C=C/CNC(=O)C(O)CC(C)C (centres unmarked) [bacillaene]
- inhibition of growth of Salmonella enterica (in words) [1]: effectively inhibit the growth
- inhibition of growth of Vibrio parahaemolyticus (in words) [2]: effectively inhibit the growth
